Patent US12416008B2, “Compositions and methods of use for small-molecule regulation of CRISPR-Cas9 activity using RNA aptamers” (priority 2019, dated 2025)
Marks after values point to notes of the source that are not given here.

Experiments:
galK 1 site [1] = test: red/white colony screen of editing efficiency at the galK 1 site (CREATE recombineering); assay type: cell-based, E. coli MG1655; settings: for Editing Efficiency 1 mM Theo: induced for 3 hours with 1 mM theophylline; for Editing Efficiency no Theo: no theophylline, 3 hours recovery
Description: Candidates from this enriched library were analyzed to inform an improved library design. After three selection/counterselection steps, cells were plated on M63 selection medium^20 and 150 colonies were picked. Each isolated candidate was then transformed into unedited E. coli to screen for theophylline-responsive constructs using a red/white colony assay to quantify the percentage of edited bacteria. Colonies with an unedited galK site appear red whereas edited colonies appear white (FIG. 5). The percentage of white colonies is considered the editing efficiency. Gene editing was induced as previously described with or without adding theophylline and the editing efficiencies were compared.
The protocol established by Garst et al was mainly followed. LB containing kanamycin and chloramphenicol was inoculated with MGλ9 cells and grown overnight at 30° C. The stationary culture was diluted 100 fold in LB, containing chloramphenicol, kanamycin and 0.2% arabinose and grown to an OD600=0.4-0.6 in 25 mL LB. The culture was heat-shocked in a shaking waterbath at 42° C. for 15 minutes to induce expression of the lambda-red proteins from pSIM5. Then, the culture was washed in two volumes of ice-cold deionized water, resuspended in 500 μl deionized water and 50 μl of the cell suspension was electroporated with 200 ng of a CREATE plasmid that encodes gRNA and homology template. The transformants were recovered in 4 mL of LB, containing 0.2% arabinose and optionally 1 mM theophylline or 1 μM anhydrotetracycline (ATC), and shaken at 37° C. for 3 hours before plating on MacConkey Agar. To estimate the number of cfu, aliquots were plated on LB agar 1 hour after transformation.
(§1) In order to assess the frequency of gene editing, a red/white screen was used to visualize the introduction of a stop codon into the galK gene by CREATE. The original CREATE protocol was used for inducing gene editing and after 3 hours of recovery (with or without the agRNA ligand) a series of dilutions of the cultures were plated on MacConkey Agar plates containing 1% galactose. Bacterial colonies with a mutated galK* site appear white on the plates, whereas non-edited colonies appear red. The editing efficiency could be calculated by dividing the number of edited colonies over the total number of colonies. By comparing the editing efficiency in presence versus absence of the ligand, a dynamic range of the in vivo activity could be determined.
When screening the enriched libraries for switchable constructs, the transformants were recovered in 4 mL of LB broth, a dilution series was plated for every construct and the experiment was only carried out once due to the large volume of colonies screened (˜250 in total). When the constructs A9 and GU19 were characterized in detail, triplica of the experiment were carried out.

xylA gene = test: red/white screen of editing at the xylA gene; assay type: cell-based, E. coli; settings: 1 mM theophylline
Description: (§2) Promising agRNA constructs were analyzed in further detail. […] The xylA gene was targeted with these 17 agRNAs to test whether a different spacer sequence affects the performance. Editing was quantified with the same red/white screen. […] To confirm sequence independence of those two agRNAs, they were used to edit three more alternative sites at the galK gene. […] Sequencing confirmed that the phenotypic change in the assay corresponded to a designed genomic edit (FIG. 7). The observation that a number of agRNAs only act at the selected galK1 site highlights that the CRISPR-Cas9 system can be selected to act at a single sequence, a feature that could be exploited for reducing off-target effects.
as §1, with “Bacterial colonies with a mutated galK* site appear white on the plates, whereas non-edited colonies appear red.” left out

[2] = tested on: alternative sites at the galK gene; test: editing at three more alternative sites at the galK gene; assay type: cell-based, E. coli; settings: with or without 1 mM theophylline
Description: as §2
as §1, with “Bacterial colonies with a mutated galK* site appear white on the plates, whereas non-edited colonies appear red.” left out

[3] = biological target: T1, Streptococcus pyogenes Cas9 (Streptococcus pyogenes serotype M1, UniProt Q99ZW2); test: electrophoretic mobility shift assay (EMSA) of Cas9 binding to gRNAs; settings: presence or absence of 250 μM theophylline
T1 construct: host or cells: E. coli BL21 (DE3) Rosetta
T1 sequence (Q99ZW2 whole entry): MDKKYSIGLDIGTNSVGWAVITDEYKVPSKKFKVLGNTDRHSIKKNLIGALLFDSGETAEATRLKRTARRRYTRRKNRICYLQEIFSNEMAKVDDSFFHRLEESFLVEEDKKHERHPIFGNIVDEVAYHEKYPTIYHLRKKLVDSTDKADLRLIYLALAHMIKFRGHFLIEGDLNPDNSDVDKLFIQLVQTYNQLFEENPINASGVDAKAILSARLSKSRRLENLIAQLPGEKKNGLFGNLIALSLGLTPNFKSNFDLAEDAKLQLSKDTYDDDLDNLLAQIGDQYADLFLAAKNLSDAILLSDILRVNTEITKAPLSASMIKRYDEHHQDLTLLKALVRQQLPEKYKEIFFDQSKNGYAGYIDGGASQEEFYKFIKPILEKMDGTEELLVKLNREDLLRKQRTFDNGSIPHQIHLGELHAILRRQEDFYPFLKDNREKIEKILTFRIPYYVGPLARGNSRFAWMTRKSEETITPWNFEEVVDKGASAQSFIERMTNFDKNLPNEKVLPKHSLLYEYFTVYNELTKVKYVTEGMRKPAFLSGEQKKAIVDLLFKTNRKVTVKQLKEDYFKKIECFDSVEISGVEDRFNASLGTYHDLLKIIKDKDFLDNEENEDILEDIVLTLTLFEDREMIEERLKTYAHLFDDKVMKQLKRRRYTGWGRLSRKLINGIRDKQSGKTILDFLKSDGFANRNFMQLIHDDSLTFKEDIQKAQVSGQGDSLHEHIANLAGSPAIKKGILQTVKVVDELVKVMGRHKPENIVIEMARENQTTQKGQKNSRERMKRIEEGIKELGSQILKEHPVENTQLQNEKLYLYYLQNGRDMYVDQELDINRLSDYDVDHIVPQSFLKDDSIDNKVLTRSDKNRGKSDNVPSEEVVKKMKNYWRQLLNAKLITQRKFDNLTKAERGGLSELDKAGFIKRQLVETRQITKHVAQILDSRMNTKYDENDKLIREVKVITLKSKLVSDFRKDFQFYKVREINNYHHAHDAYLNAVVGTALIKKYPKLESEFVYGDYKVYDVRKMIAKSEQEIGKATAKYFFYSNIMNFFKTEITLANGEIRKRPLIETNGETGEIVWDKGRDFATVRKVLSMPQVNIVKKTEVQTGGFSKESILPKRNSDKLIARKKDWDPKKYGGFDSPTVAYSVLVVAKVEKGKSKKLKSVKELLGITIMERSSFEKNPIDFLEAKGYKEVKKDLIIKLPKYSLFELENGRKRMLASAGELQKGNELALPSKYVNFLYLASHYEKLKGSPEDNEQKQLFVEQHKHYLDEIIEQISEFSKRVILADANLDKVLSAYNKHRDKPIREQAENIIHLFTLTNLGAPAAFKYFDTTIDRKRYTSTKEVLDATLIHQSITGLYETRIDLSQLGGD

MGλ9 strain = test: transformation and editing efficiency, agRNAs activated with theophylline 1 hour after transformation (aptamer-protocol); assay type: cell-based, E. coli; settings: theophylline added 1 hour after transformation; for increase in number of transformants: versus wt gRNA
Description: FIGS. 3A-3D show aptamer-gRNAs enable high-throughput genome editing. FIG. 3A is a schematic showing the workflow of the aptamer-controlled gene editing. […] CFUs are colony forming units μg-1 DNA and per 4 mL of recovery media. […] Each dot represents a biological replicate and error bars indicate standard deviation from the mean. FIG. 3C is a schematic of the plasmid design used to enable multiplexed gene editing. The individual homology arms and agRNAs are identical to the ones previously described for the single-edit experiments. […] The values represent the average of three biological replicates.
Equipped with temporally controllable agRNAs, the gene editing technology CREATE^10 was optimized. One major drawback of CRISPR-mediated bacterial gene editing technologies is cell death caused by dsDNA cuts^10, despite overexpression of λ-red proteins to increase the frequency of homologous repair. Without wishing to be bound by theory, it is hypothesized that the stress of transformation combined with rapid generation of dsDNA breaks synergistically leads to a high level of cell death. […] Although a low transformation efficiency is not a significant issue when creating a single edit with a defined sgRNA, it dramatically impacts the ability to transform a library of sgRNA plasmids to generate a population of bacteria with different edits. In this process, a portion of gRNAs from the library is expected to be non-functional due to errors in oligonucleotide synthesis, sgRNA misfolding, or inefficient targeting.
LB containing kanamycin and chloramphenicol was inoculated with MGλ9 cells and grown overnight at 30° C. The stationary culture was diluted 100 fold in LB, containing chloramphenicol and kanamycin and grown to an OD600=0.4-0.6 in 25 mL LB. Then, the culture was washed in two volumes of ice-cold deionized water, resuspended in 500 μl deionized water and 50 μl of the cell suspension was electroporated with 200 ng of a CREATE plasmid that encodes gRNA and homology template. The transformants were recovered in 4 mL of LB, containing 0.2% arabinose and shaken at 30° C. for 1 hour. The culture was heat-shocked in a shaking waterbath at 42° C. for 15 minutes and 1 mM theophylline or 1 μM ATC was added to the culture. The culture was shaken at 37° C. for 3 hours before plating on MacConkey Agar. To estimate the number of cfu, aliquots were plated on LB agar 1 hour after transformation.

galK1 site = test: co-transformation of targeting gRNA plasmid with non-targeting gRNA plasmid (simulated library); settings: for # of unedited colonies carrying non-targeting gRNA plasmid: 16 unedited colonies picked, 20 ng non-targeting + 180 ng targeting plasmid, 1 mM theophylline; for percentage of edited cells: plasmid mixture 90% targeting galK1, 10% non-targeting (eGFP) gRNA
[4] = tested on: galK (site 1) and xylA (site 2); test: multiplexed gene editing with theophylline-regulated GU19-agRNA and 3MX-regulated A9-agRNA on one plasmid; assay type: cell-based, E. coli; settings: 3-hour induction with 1 mM of a single ligand
Description: A plasmid was designed that expressed a theophylline-regulated GU19-agRNA targeting galK1 and a 3-methylxanthine (3MX)-regulated A9-agRNA targeting the xylA gene. […] The plasmid construct was then used for a 3-hour induction with either 1 mM theophylline, 1 mM 3MX or a combination of the two and the transformed bacteria were plated on MacConkey agar that contained either galactose, xylose or both to assay editing of the galK and xylA genes with the red/white screen (FIG. 3D, FIG. 11).
For the purpose of first adding theophylline and later 3MX to independently induce two different agRNAs, the protocol was slightly modified. First, the bacteria were prepared and transformed as in the original protocol, 1 mM theophylline was added to the media and the culture was shaken at 30° C. for three hours. Then, the culture was heat-shocked again at 42° C. for 15 minutes to induce expression of the lambda-red proteins again and 1 mM 3MX was added to the media. The culture was shaken at 37° C. for three hours and then plated.

galK 1 site [5] = test: red/white colony screen of editing efficiency at the galK 1 site (CREATE recombineering); assay type: cell-based, E. coli MG1655; settings: galK1 site; agRNAs A9 and GU19 (FIG. 2A)
[6] = biological target: isolated aptamer (theophylline aptamer); settings: theophylline binding; cited from earlier work

| Molecule | Editing Efficiency 1 mM Theo (galK 1 site [1]) | Editing Efficiency no Theo (galK 1 site [1]) | editing efficiency at xylA compared with galK1 (in words) (xylA gene) | targetability of alternative galK sites (in words) [2] | apparent binding affinity to the Cas9 protein [3] | editing efficiencies (MGλ9 strain) | increase in number of transformants (MGλ9 strain) | # of unedited colonies carrying non-targeting gRNA plasmid (galK1 site) | percentage of edited cells (galK1 site) | editing of galK and xylA upon induction (in words) [4] | dependence of editing efficiency on theophylline concentration and induction time (galK 1 site [5]) | Kd [6] |
| --- | --- | --- | --- | --- | --- | --- | --- | --- | --- | --- | --- | --- |
| A9: agRNA cassette TGAAGGCCGCAACA, SEQ ID NO: 5 (chemistry not given here) | 81%** | 9%** | editing efficiency at xylA similar to the galK1 site used during selection | Only one of those sites was not targetable | the same apparent binding affinity to the Cas9 protein as the wild type gRNA, independent of theophylline | ~80% | 10^4 fold | 9/16 | 81% | – | – | – |
| Cn1c(=O)c2[nH]cnc2n(C)c1=O [theophylline] | – | – | – | – | – | – | – | – | – | induced editing of the galK gene but not the xylA gene | increased with the concentration of theophylline and induction time | 400 nM |
| A1: agRNA cassette GGGGGGCCTATTTT, SEQ ID NO: 8 (expressed or natural sequence) | 66% | 0% | – | – | the same apparent binding affinity to the Cas9 protein as the wild type gRNA, independent of theophylline | – | – | – | – | – | – | – |
| GU19: agRNA cassette GATCGGCCATAGAT, SEQ ID NO: 51 (chemistry not given here) | 64%** | 3%** | editing efficiency at xylA similar to the galK1 site used during selection | more site-dependent, but also showed less background activity | the same apparent binding affinity to the Cas9 protein as the wild type gRNA, independent of theophylline | ~80% | 10^4 fold | 6/16 | 63% | – | – | – |
| Cn1c(=O)[nH]c(=O)c2nc[nH]c21 [3MX, 3-methylxanthine] | – | – | – | – | – | – | – | – | – | induced mostly editing of xylA and to a lesser extent galK | – | – |
